Counter-ions that a name gives are not always drawn.
What was measured:
[1] = test system: TNBS colitis; test: TNBS colitis in mice; assay type: in vivo; conditions: i.c. administration, 50 mg/kg daily for 5 days, day 4, vs vehicle-treated mice
Method: Male C57BL/6J mice 8-10 weeks old were purchased from The Jackson Laboratory (Sacramento, CA, USA). Mice were housed 4 per cage, maintained on a 12:12 hour light-dark cycle and given access to food and water ad libitum. Following an acclimatization period of 3 to 5 days, trinitrobenzene sulfonic acid (TNBS, Millipore Sigma, St. Louis, MO, USA) colitis was induced by intracolonic (i.c.) injection of 0.05 ml TNBS solution (5 mg in 40% ethanol) via a polyethylene cannula (BD Intramedic PE-20 tubing, Thermo Fisher Scientific, Santa Clara, CA, USA) inserted 3.5 cm from the anal verge under isoflurane anesthesia (4% in O2 induction, 2.5-3% maintenance). Control mice received an injection of 40% ethanol (0.05 ml, i.c.). To test the effectiveness of the HDAC analogs, mice received a daily injection (0.1 ml, i.c.) of a selective HDAC class II inhibitor analog (50 mg/kg MJK001-013) or vehicle (5% dimethyl sulfoxide, Millipore Sigma) beginning one day prior to TNBS colitis induction (day −1) for a period of 5 days. Separate groups of mice received HDAC inhibitors or vehicle administered by daily oral gavage (50 mg/kg, 0.25 ml, p.o.). All analogs tested were first dissolved in dimethyl sulfoxide (DMSO) with rapid vortexing and subsequent dilution to 5% in sterile phosphate buffered saline (PBS; Gibco, Thermo Fisher Scientific). Vehicle contained 5% DMSO in sterile PBS. Prior to use, all solids were stored in amber (light-blocking) storage vials at 4° C. On the first day of administration, stock solutions were prepared, aliquoted and stored at −20° C. for daily use. Upon thawing, each aliquot was vortexed prior to intracolonic injection (via a polyethylene cannula) or oral gavage (20 ga×38 mm, Instech, Thermo Fisher Scientific). Following all in vivo experiments, animals were euthanized on day 4 by CO2 inhalation and cervical dislocation and the distal colons removed for further study.
Disease severity was assessed by weight loss and measurement of colon length and determination of clinical and histological damage scores on day 4 of the protocol. Briefly, clinical scores were calculated on a scale of 0-3 for degree of weight loss, bleeding, stool consistency and presence of rectal prolapse. Sections of colon (5 μm) fixed in 10% formalin, paraffin-embedded and stained with hematoxylin and eosin (H&E) were used for histological scoring using an AxioImager. Z1 microscope equipped with AxioVision software version 4.6 (Zeiss, Jena, Germany). Scoring was performed by two independent investigators blinded to the treatment conditions and resulting scores averaged. Scores were assigned based on the degree of crypt damage (0-4), polymorphonuclear neutrophil (PMN) infiltrate (0-3), erosion (0-3), and edema (0-3).
Statistical analyses were performed using GraphPad Prism (Version 5.0a; GraphPad Software, La Jolla, CA, USA). Differences were determined by unpaired t-test, 1-way analysis of variance, or a 2-way analysis of variance with Tukey's post-test. A p value <0.05 was considered to be statistically significant. Data presented are means±SEM for n animals.
Novel chemical HDAC inhibitors were developed aiming to target specific isoforms of the HDAC Class IIA members. Overall, as shown above, compounds have been synthesized, named MJK-001, -002, -003, -004, -005, -006, -007, -008, -009, -010, -011, -012 & -013. The effect of selective HDAC class IIA isoform inhibition during development of colitis in mice in vivo during TNBS administration was assessed. This mouse model is known to recapitulate many features of human Crohn's Disease. Mice received either an intracolonic (i.c.) injection or oral delivery (p.o.) of the MJK compounds once daily for a period of 5 days and health status, weight loss, and disease activity were monitored. Mice (male C57BL/6J, 8-10 wks old) are weighed and monitored daily. On the final day, blood, feces, and colonic samples for RNA, protein and histology are collected for downstream analysis. […]

[2] = Water solubility of MJK compounds; assay type: physicochemical
From the text: Solubility of MJK compounds: The development of an oral formulation for patients with auto-immune diseases, including Crohn's Disease, is preferential and less expensive, avoiding the need of hospitalization in comparison to the intracolonic (enema) administration. Thus, the water solubility and physical properties of the MJK compounds were examined. […] MJK-008 is the highest soluble MJK compound.

[3] = listed as MJK-013, hydrochloride, 50 mg/kg
[4] = listed as MJK-005, hydrochloride, 50 mg/kg

For `Cn1c(/C=C/C(=O)NO)ccc1/C=C/C(=O)c1ccncc1` [MJK011, (E)-N-hydroxy-3-(1-methyl-5-((E)-3-oxo-3-(pyridin-4-yl)prop-1-en-1-yl)-1H-pyrrol-2-yl)ac-rylamide], the clinical score ([1]; 50 mg/kg) was “♦♦♦”, the colon length ([1]; 50 mg/kg) was “ns” and the clinical score ([1]; listed as MJK-011, 50 mg/kg) was “reduction in clinical scoring”. For the same compound, the colon length ([1]; listed as MJK-011, 50 mg/kg) was “did not alter colon length” and the Solubility score [2] was “worst solubility”.

For `Cl.Cn1c(/C=C/C(=O)NO)ccc1/C=C/C(=O)c1cnccn1` [MJK013, (E)-N-Hydroxy-3-(1-methyl-5-((E)-3-oxo-3-(pyrazin-2-yl)prop-1-en-1-yl)-1H-pyrrol-2-yl)acrylamide hydrochloride], the clinical score ([1]; hydrochloride, 50 mg/kg) was “ns”, the colon length ([1]; hydrochloride, 50 mg/kg) was “ns” and the clinical score [1, 3] was “no significant differences”. For the same compound, the colon length [1, 3] was “no significant differences”.

With `Cl.Cn1c(/C=C/C(=O)NO)ccc1/C=C/C(=O)c1ccsc1` [MJK005, (E)-N-hydroxy-3-(1-methyl-5-((E)-3-oxo-3-(thiophen-3-yl)prop-1-en-1-yl)-1H-pyrrol-2-yl)acrylamide hydrochloride] the clinical score ([1]; hydrochloride, 50 mg/kg) was “♦♦♦”, the colon length ([1]; hydrochloride, 50 mg/kg) was “ns” and the clinical score [1, 4] was “reduction in clinical scoring”. The colon length [1, 4] was “did not alter colon length”.

In the case of `Cn1c(/C=C/C(=O)NO)ccc1/C=C/C(=O)c1cccc(Cl)c1` [MJK003, (E)-3-(5-((E)-3-(3-chlorophenyl)-3-oxoprop-1-en-1-yl)-1-methyl-1H-pyrrol-2-yl)-N-hydrox-yacrylamide], the clinical score ([1]; 50 mg/kg) is reported as “♦♦”, the colon length ([1]; 50 mg/kg) is reported as “♦” and the histological score ([1]; 50 mg/kg) is reported as “did not yield significant differences and ns”. For the same compound, the clinical score ([1]; listed as MJK-003, 50 mg/kg) was “statistical significance in the reduction of the clinical score” and the colon length ([1]; listed as MJK-003, 50 mg/kg) was “increase of colon length”.

For `Cn1c(/C=C/C(=O)NO)ccc1/C=C/C(=O)c1ccco1` [MJK012, (E)-3-(5-((E)-3-(Furan-2-yl)-3-oxoprop-1-en-1-yl)-1-methyl-1H-pyrrol-2-yl)-N-hydroxyacrylamide], the clinical score ([1]; 50 mg/kg) was “ns”, the colon length ([1]; 50 mg/kg) was “ns” and the clinical score ([1]; listed as MJK-012, 50 mg/kg) was “no significant differences”. For the same compound, the colon length ([1]; listed as MJK-012, 50 mg/kg) was “no significant differences”.

With `COc1cccc(C(=O)/C=C/c2ccc(/C=C/C(=O)NO)n2C)c1` [MJK002, (E)-N-hydroxy-3-(5-((E)-3-(3-methoxyphenyl)-3-oxoprop-1-en-1-yl)-1-methyl-1H-pyrrol-2-yl)acrylamide] the clinical score ([1]; 50 mg/kg) was “♦♦♦”, the colon length ([1]; 50 mg/kg) was “♦” and the histological score ([1]; 50 mg/kg) was “did not yield significant differences and ns”. The clinical score ([1]; listed as MJK-002, 50 mg/kg) was “statistical significance in the reduction of the clinical score”, the colon length ([1]; listed as MJK-002, 50 mg/kg) was “increase of colon length” and the Solubility score [2] was “more soluble than MJK-001 and MJK-003”.

With `Cn1c(/C=C/C(=O)NO)ccc1/C=C/C(=O)c1ccccn1` [MJK010, (E)-N-Hydroxy-3-(1-methyl-5-((E)-3-oxo-3-(pyridin-2-yl)prop-1-en-1-yl)-1H-pyrrol-2-yl)acrylamide] the clinical score ([1]; 50 mg/kg) was “ns”, the colon length ([1]; 50 mg/kg) was “ns” and the clinical score ([1]; listed as MJK-010, 50 mg/kg) was “no significant differences”. For the same compound, the colon length ([1]; listed as MJK-010, 50 mg/kg) was “no significant differences”.

For `Cn1cccc1C(=O)/C=C/c1ccc(/C=C/C(=O)NO)n1C` [MJK007, (E)-N-Hydroxy-3-(1-methyl-5-((E)-3-(1-methyl-1H-pyrrol-2-yl)-3-oxoprop-1-en-1-yl)-1H-pyrrol-2-yl)acrylamide], the clinical score ([1]; 50 mg/kg) was “ns”, the colon length ([1]; 50 mg/kg) was “ns” and the clinical score ([1]; listed as MJK-007, 50 mg/kg) was “no significant differences”. The colon length ([1]; listed as MJK-007, 50 mg/kg) was “no significant differences”.

In the case of `Cn1c(/C=C/C(=O)NO)ccc1/C=C/C(=O)c1cccnc1` [MJK009, (E)-N-Hydroxy-3-(1-methyl-5-((E)-3-oxo-3-(pyridin-3-yl)prop-1-en-1-yl)-1H-pyrrol-2-yl)ac-rylamid p-toluenesulfonic acid salt], the clinical score ([1]; 50 mg/kg) is reported as “♦”, the colon length ([1]; 50 mg/kg) is reported as “ns” and the clinical score ([1]; listed as MJK-009, 50 mg/kg) is reported as “reduction in clinical scoring”. For the same compound, the colon length ([1]; listed as MJK-009, 50 mg/kg) was “did not alter colon length” and the Solubility score [2] was “highest solubility”.

Reference: patent US11952362B2, “Compositions and methods for treating epigenetic disease” (The Regents of the University of California, priority 2018, dated 2024)
